In ChEMBL document CHEMBL1158626, “Structure-activity relationship (SAR) investigations of tetrahydroquinolines as BKCa agonists” (2010):

Species: Rattus norvegicus
Assay: Reduction in spontaneous neuronal firing in Sprague-Dawley rat at 10 uM
Type: functional

SMILES | inhibition (INH)
O=C(O)c1ccc2c(c1)[C@@H]1C=CC[C@@H]1[C@@H](c1ccc(Cl)cc1Cl)N2 | 75%

Test system: not listed separately
Assay: Agonist activity at human BKCa channel expressed in CHO cells assessed as increase in potassium current at 10 uM by PatchXpress electrophysiology assay relative to control
Type: functional

SMILES | fold change (FC)
Cc1ccc([C@H]2Nc3ccc(C(=O)O)cc3[C@@H]3C=CC[C@H]23)c(C)c1 | 8.9
O=C(O)c1ccc2c(c1)[C@@H]1C=CC[C@@H]1[C@@H](c1cccc(Cl)c1Cl)N2 | 2.7
O=C(O)c1ccc2c(c1)[C@@H]1C=CC[C@@H]1[C@@H](c1ccc(Cl)c(Cl)c1)N2 | 12.1
O=C(O)c1ccc2c(c1)[C@@H]1C=CC[C@@H]1[C@@H](c1ccc(Cl)cc1Cl)N2 | 11.2
O=C(O)c1ccc2c(c1)[C@@H]1C=CC[C@@H]1[C@@H](c1ccc(Cl)cc1)N2 | 7.3
O=C(O)c1ccc2c(c1)[C@@H]1C=CC[C@@H]1[C@@H](c1ccc(C(F)(F)F)cc1)N2 | 6
O=C(O)c1ccc2c(c1)[C@@H]1C=CC[C@@H]1[C@@H](c1ccc(Br)cc1)N2 | 8.9
O=C(O)c1ccc2c(c1)[C@@H]1C=CC[C@@H]1[C@@H](c1cccc(Cl)c1)N2 | 2.2
Cc1cccc([C@H]2Nc3ccc(C(=O)O)cc3[C@@H]3C=CC[C@H]23)c1 | 3.1
O=C(O)c1ccc2c(c1)[C@@H]1C=CC[C@@H]1[C@@H](c1ccccc1)N2 | 1.2
O=C(O)c1ccc2c(c1)[C@@H]1C=CC[C@@H]1[C@@H](c1cccc(Br)c1)N2 | 2.6
CC(C)(C)[C@H]1Nc2ccc(C(=O)O)cc2[C@@H]2C=CC[C@@H]21 | 0.8
O=C(O)c1ccc2c(c1)[C@@H]1C=CC[C@@H]1[C@@H](c1ccccc1Cl)N2 | 4.9
O=C(O)c1ccc2c(c1)[C@@H]1C=CC[C@@H]1[C@@H](c1ncc(Cl)cc1Cl)N2 | 2.5
O=C(O)c1ccc2c(c1)[C@@H]1C=CC[C@@H]1CN2 | 0.6
Cn1cc([C@H]2Nc3ccc(C(=O)O)cc3[C@@H]3C=CC[C@H]23)cn1 | 1

Test system: not listed separately
Assay: Agonist activity at human BKCa channel expressed in CHO cells assessed as increase in potassium current at 3 uM by PatchXpress electrophysiology assay relative to control
Type: functional

SMILES | fold change (FC)
O=C(O)c1ccc2c(c1)[C@@H]1CCC[C@@H]1[C@@H](c1ccc(Cl)cc1Cl)N2 | 4.6
O=C(O)c1ccc2c(c1)[C@@H]1C=CC[C@@H]1[C@@H](c1ccc(Cl)cc1Cl)N2 | 6.7
O=C(O)c1ccc2c(c1)[C@@H]1C(O)C(O)C[C@@H]1[C@@H](c1ccc(Cl)cc1Cl)N2 (some centres not stated) | 0.9
O=C(O)c1ccc2nc(-c3ccc(Cl)cc3Cl)c3c(c2c1)CCC3 | 1
O=C(O)c1ccc2c(c1)CC[C@@H](c1ccc(Cl)cc1Cl)N2 | 0.9
O=C(O)Cc1ccc2c(c1)[C@@H]1C=CC[C@@H]1[C@@H](c1ccc(Cl)cc1Cl)N2 | 1.5
O=C(O)c1ccc2c(c1)[C@@H]1OCC[C@@H]1[C@@H](c1ccc(Cl)cc1Cl)N2 | 1
CS(=O)(=O)NC(=O)c1ccc2c(c1)[C@@H]1C=CC[C@@H]1[C@@H](c1ccc(Cl)cc1Cl)N2 | 2.7
COC(=O)c1ccc2c(c1)[C@@H]1C=CC[C@@H]1[C@@H](c1ccc(Cl)cc1Cl)N2 | 1
OCc1ccc2c(c1)[C@@H]1C=CC[C@@H]1[C@@H](c1ccc(Cl)cc1Cl)N2 | 1.5
O=c1[nH]c(-c2ccc3c(c2)[C@@H]2C=CC[C@@H]2[C@@H](c2ccc(Cl)cc2Cl)N3)no1 | 3.4
CONC(=O)c1ccc2c(c1)[C@@H]1C=CC[C@@H]1[C@@H](c1ccc(Cl)cc1Cl)N2 | 2.2
O=C(O)c1ccc2c(c1)C1C=CCC[C@@H]1[C@@H](c1ccc(Cl)cc1Cl)N2 (single isomer, unassigned) | 4.5
O=C(O)c1ccc2c(c1)C1OCCC[C@@H]1[C@@H](c1ccc(Cl)cc1Cl)N2 (single isomer, unassigned) | 1.5
O=C(O)c1ccc2c(c1)C1CCCC[C@@H]1[C@@H](c1ccc(Cl)cc1Cl)N2 (single isomer, unassigned) | 3.6
